Source: patent US20120065265A1, “ALPHA-2-DELTA LIGANDS FOR NON-RESTORATIVE SLEEP” (Pfizer Inc., priority 2006, published 2012)

Test system: subjects with non-restorative sleep (NRS)
Test: Randomized, double-blind, placebo- and active-controlled 4-way crossover study in an NRS population: efficacy
Assay type: in vivo, human
Conditions: for RSQ-W Total Score, comparison with placebo: one-sided alpha 0.05; for RSQ-W Total Score, LS Mean (primary endpoint): po, 336 h
Experimental: STUDY DESIGN. […] Subjects were subsequently crossed over 3 times to receive the remaining treatments, each for 2 weeks followed by a 1—week washout period. […] Each treatment was administered at least 2 hours after a meal. DIAGNOSIS AND MAIN CRITERIA FOR INCLUSION. Subjects selected for the study were male and/or nonpregnant, nonlactating females between the ages of 18-64 years, inclusive, who regularly (≧3 times/week) awoke un-restored or un-refreshed for at least the previous 3 months, causing significant distress or impairment in social, occupational, or other important areas of functioning during the daytime.
EFFICACY & SAFETY EVALUATIONS. The primary endpoint in this study was the Restorative Sleep Questionnaire—Weekly (RSQ-W) Total Score at the end of each 2-week treatment period. The RSQ-W, below, is a patient-reported outcome measure of morning refreshment over the past week in which larger values of the total score correspond to greater refreshment. All remaining efficacy/outcomes endpoints were considered secondary. Safety data, including adverse event information, clinical laboratory values, physical examination, vital signs, and electrocardiograms (ECGs) were collected during the study.
STATISTICAL METHODS. The Full Analysis Set was used in the analyses of all efficacy/outcome endpoints. […] The Per-Protocol Analysis Set was used for sensitivity analyses of certain efficacy/outcome endpoints as appropriate. […] Protocol deviations included the major inclusion/exclusion criteria assessed prior to randomization and major protocol deviations or violations assessed after randomization. […] The Safety Analysis Set was used in the analyses of the safety data and consisted of all randomized subjects who took any study medication.
Each comparison was done at the nominal alpha=0.05 level (one-sided), recognizing that the probability of committing at least one Type I error could be greater than 0.05 but no more than 0.15.
MODEL-BASED SUMMARY. The primary endpoint in this study was the RSQ-W Total Score at the end of each 2-week treatment period. This endpoint was analyzed using a linear model including sequence, period, and treatment as fixed factors, and subject within sequence and within-subject error as random factors. First-order carryover effects were explored and tested at the 10% nominal level of significance. Pair-wise comparisons were made based on the final linear model. The point estimates and 90% confidence intervals (Cis) for the placebo-adjusted treatment effects were constructed using the least squares (LS) means and appropriate standard errors.
DESCRIPTIVE SUMMARY. For each item and Total Score of the RSQ-W, descriptive statistics were provided by treatment and visit.
For secondary/exploratory purposes, certain secondary efficacy endpoints were analyzed with model-based statistical procedures. […] All comparisons are considered secondary/exploratory, and each was done at the nominal alpha=0.05 level (one-sided). No multiple comparison adjustment was made. All secondary efficacy endpoints were summarized descriptively. For secondary/exploratory purposes, appropriate model-based statistical procedures similar to those for the primary endpoint were used to analyze the following scales and subscales: • Restorative Sleep Questionnaire—Daily (RSQ-D, below): weekly averages of Total Score; • Daytime Consequences of Sleep Questionnaire (DCSQ): Total Score; • Multidimensional Assessment of Fatigue (MAF): Global Fatigue Index, Impact Subscale; • Subjective Sleep Questionnaire (SSQ): Sleep Quality; • Sheehan Disability Scale (SDS): Total Score; • SF-36v2: Mental Component Summary, Physical Component Summary, Vitality Subscale; • Clinical Global Impression of Change (CGIC): Status Score; and • Patient Global Impression of Change (PGIC): Status Score.

[1] = COMPOUND A doses (25 mg and 50 mg)

SMILES	RSQ-D Total Score at Week 2 (COMPOUND A 25 mg)	RSQ-W Total Score, comparison with placebo (COMPOUND A 25 mg)	Evening Functioning Scale (COMPOUND A dose groups, similar level of functioning as with zolpidem)	MAF Impact Subscale score at Week 2, comparison with placebo [1]	RSQ-D Total Score at Week 2, comparison with placebo [1]	RSQ-W Total Score, LS Mean (primary endpoint) (25 mg)	RSQ-W Total Score, LS Mean (primary endpoint) (50 mg)	Treatment effect relative to placebo on the primary endpoint, the RSQ-W (conclusion) (subjects with non-restorative sleep, no dose stated)	RSQ-W Total Score, comparison with placebo (zolpidem 10 mg)
C[C@H]1CC(CN)(CC(=O)O)C[C@@H]1C [COMPOUND A, (3S,4S)-(1-aminomethyl-3,4-dimethyl-cyclopentyl)-acetic acid]	61.5	statistically significantly different from placebo	better functioning than while taking placebo	not statistically significantly different from placebo	no statistically significant differences from placebo	63.6	62.5	positive treatment effect relative to placebo	
Cc1ccc(-c2nc3ccc(C)cn3c2CC(=O)N(C)C)cc1 [zolpidem, reference compound]									not statistically significantly different from placebo
